Assay results: patent publication US20120022143A1, “RNA Interference Mediated Inhibition of the Thymic Stromal Lymphopoietin (TSLP) Gene Expression Using Short Interfering Nucliec Acid (siNA)” (Merck Sharp & Dohme Corp, priority 2009, published 2012)
[invAb] = inverted abasic unit; d = 2'-deoxy (DNA); m = 2'-O-methyl; r = 2'-OH (RNA); f = 2'-fluoro

Assays:
mTSLP mRNA = test: Initial screening: mouse TSLP mRNA knock-down by RT-PCR (Taqman) after RNAiMax transfection of NIH 3T3 cells; format: cell-based; details: 10 nM siNA, 24 hrs post-transfection, mean ± s.d., summary from 2 screens
Description: (§1) All cells were obtained from ATCC (Manassas, Va.) unless otherwise indicated. Cells were grown and transfected under standard conditions, which are detailed below for each cell line.
NIH 3T3 (murine; ATCC cat#CRL-1658): Cells were cultured at 37° C. in the presence of 5% CO2 and grown in Dulbecco's modified Eagle's medium (DMEM) with 4 mM L-glutamine adjusted to contain 1.5 g/L sodium bicarbonate and 4.5 g/L glucose and supplemented with fetal bovine serum at a final concentration of 10% and 100 μg/mL of streptomycin and 100 U/mL penicillin.
(§2) All transfections were performed using RNAiMax (Invitrogen Cat# 13778-150) as per the manufacturer's instructions.
(§3) Both human and murine cell lines were transfected in the similar fashion. Cells were plated in all wells of a tissue-culture treated, 96-well plate at a final count of 5,000 cells/well in […], of appropriate culture media. Cells were cultured for 24 hours after plating at 37° C. in the presence of 5% CO2.
(§4) After 24 hours, complexes containing siNA and RNAiMax were created as follows: A solution of RNAiMax diluted 33-fold in OPTI-MEM was prepared. In parallel, solutions of the siNAs for testing were prepared to a final concentration of 120 nM in OPTI-MEM. After incubation of RNAiMax/OPTI-MEM solution at room temperature for 5 min, an equal volume of the siNA solution and the RNAiMax solution were added together for each of the siNAs.
(§5) This solution was incubated at room temperature for 20 minutes. After incubation, 20 uL of the solution was added to each of the relevant wells.
(§6) The final concentration of siNA in each well was 10 nM and the final volume of RNAiMax in each well was 0.3 ul.
(§7) The time of incubation with the RNAiMax-siNA complexes was 24 hours, unless otherwise indicated. There was no change in media between the transfection and harvesting of the cells unless otherwise indicated.
(§8) RNA was extracted from a 96-well plate using the TaqMan® Gene Expression Cells-to-CT™ Kit (Cat# 4399002) with a modified protocol. Briefly, a 60 uL (1 plate) or 110 uL (2 plates) of the Lysis Solution with DNase I was dispensed into each well of the Lysis Buffer Plate (twin.tec full skirt plate). The lysis buffer and stop plates were stored at 4° C. until the cells were washed.
(§9) The plate was spun at 1100 rpm for 5 minutes. The culture medium was aspirated and discarded from the wells of the culture plate. The lysis was performed automatically using a BioMek FX instrument and method. After the Biomek method was completed, the lysis plate was incubated for 2 min. at room temperature. The lysis plate can be stored for 2 hours at 4° C., or at −20° C. or −80° C. for two months.
(§10) Each well of the reverse transcription plate required 10 uL of 2× reverse transcriptase Buffer, luL of 20× reverse transcription enzyme and 2 uL of nuclease-free water. The reverse transcription master mix was prepared by mixing 2× reverse transcription buffer, 20× reverse transcription enzyme mix, and nuclease-free water. 13 uL of the reverse transcription master mix was dispensed into each well of the reverse transcription plate (semi-skirted). A separate reverse transcription plate was prepared for each cell plate. The plate was loaded onto a Biomek NX or Biomek FX Dual-96 and the Biomek method was run. The program is programmed to automatically added 7 uL of lysate from the cell lysis procedure described above into each well of the reverse transcription plate. The plate is sealed and spun on a centrifuge (1000 rpm for 30 seconds) to settle the contents to the bottom of the reverse transcription plate. The plate is placed in a thermocycler at 37° C. for 60 min, 95° C. for 5 min, and 4° C. until the plate is removed from the thermocycler. Upon removal, if not used immediately, the plate was frozen at −20° C.
A series of probes and primers were used to detect the various mRNA transcripts of the genes of TSLP, IL-8 and GAPDH in human cell lines. […]

TSLP mRNA = test: Initial screening: TSLP mRNA knock-down by RT-PCR (Taqman) after RNAiMax transfection of NHLF cells; format: cell-based; details: 10 nM siNA, human NHLF cells, 24 hrs post-transfection, relative to non-targeting control, normalized to GAPDH; mean ± s.d. from 2 experiments
Description: as §1
NHLF (human; Lonza cat# CC-2512): Cells were cultured at 37° C. in the presence of 5% CO2 and grown Fibroblast Basal Medium (Lonza cat# CC-3β2) supplemented growth factors (provided with the kit) and 100 μg/mL of streptomycin and 100 U/mL penicillin.
as §2, §3, §4, §5, §6, §7, §8, §9, §10
A series of probes and primers were used to detect the various mRNA transcripts of the genes of TSLP, IL-8 and GAPDH in human cell lines. All the Taqman probes and primers for the experiments here-in described were supplied as pre-validated sets by Applied Biosystems, Inc. (see Table 2). […]

Row | Substance | % KD mTSLP NIH3T3 (mTSLP mRNA) [%] | % KD TSLP (TSLP mRNA)
1 | 25471-DC: siNA duplex: sense B AGuAGAAAAAAAAAuuAAA TTB (SEQ ID NO: 125), antisense UUUAAuuuuuuuuucuAcuUU (SEQ ID NO: 126) (sense AGUAGAAAAAAAAAUUAAATT; antisense UUUAAUUUUUUUUUCUACUUU; sense: sugars from the 5' end d2 f1 d11 f2 d5, [invAb] at 5' end, 3' end, backbone not given here; antisense: sugars from the 5' end rrrmmfffffffffffmffmm, backbone not given here) | 6.1 ± 9.6 | 22 ± 17.1%
2 | 25455-DC: siNA duplex: sense B AcAGAAGAGuuucuuAAcu TTB (SEQ ID NO: 93), antisense AGUuAAGAAAcucuucuGuUU (SEQ ID NO: 94) (sense ACAGAAGAGUUUCUUAACUTT; antisense AGUUAAGAAACUCUUCUGUUU; sense: DNA at AGT, 2'-fluoro at CU, [invAb] at 5' end, 3' end, backbone not given here; antisense: sugars from the 5' end rrrfmmmmmmfffffffmfmm, backbone not given here) | 4.9 ± 26 | 79 ± 11.3%
3 | 25443-DC: siNA duplex: sense B GAGGAAGcuuAcAuuAcAu TTB (SEQ ID NO: 69), antisense AUGuAAuGuAAGcuuccucUU (SEQ ID NO: 70) (sense GAGGAAGCUUACAUUACAUTT; antisense AUGUAAUGUAAGCUUCCUCUU; sense: DNA at AGT, 2'-fluoro at CU, [invAb] at 5' end, 3' end, backbone not given here; antisense: sugars from the 5' end rrrfmmfmfmmmfffffffmm, backbone not given here) | 16.7 ± 11.7 | 43 ± 12.1%
4 | 25440-DC: siNA duplex: sense B cucuGGuuuuuuAAAuGuA TTB (SEQ ID NO: 63), antisense UACAuuuAAAAAAccAGAGUU (SEQ ID NO: 64) (sense CUCUGGUUUUUUAAAUGUATT; antisense UACAUUUAAAAAACCAGAGUU; sense: DNA at AGT, 2'-fluoro at CU, [invAb] at 5' end, 3' end, backbone not given here; antisense: sugars from the 5' end rrrmfffmmmmmmffmmmmmm, backbone not given here) | 1 ± 33.1 | 16 ± 20.1%
5 | 25439-DC: siNA duplex: sense B cAcGuGGGAAuGcAcuGAu TTB (SEQ ID NO: 61), antisense AUCAGuGcAuucccAcGuGUU (SEQ ID NO: 62) (sense CACGUGGGAAUGCACUGAUTT; antisense AUCAGUGCAUUCCCACGUGUU; sense: DNA at AGT, 2'-fluoro at CU, [invAb] at 5' end, 3' end, backbone not given here; antisense: sugars from the 5' end rrrmmfrfmfffffmfmfrmm, backbone not given here) | 16.8 ± 14.7 | 12 ± 36.7%
6 | 25445-DC: siNA duplex: sense B GGGAuAGAAAAGuAGGuAA TTB (SEQ ID NO: 73), antisense UUAccuAcuuuucuAucccUU (SEQ ID NO: 74) (sense GGGAUAGAAAAGUAGGUAATT; antisense UUACCUACUUUUCUAUCCCUU; sense: DNA at AGT, 2'-fluoro at U, [invAb] at 5' end, 3' end, backbone not given here; antisense: sugars from the 5' end rrrfffmfffffffmffffmm, backbone not given here) | 36.1 ± 1.6 | −66 ± 42.7%
7 | 25463-DC: siNA duplex: sense B cGAGuAuuAuAcucucAAu TTB (SEQ ID NO: 109), antisense AUUGAGAGuAuAAuAcucGUU (SEQ ID NO: 110) (sense CGAGUAUUAUACUCUCAAUTT; antisense AUUGAGAGUAUAAUACUCGUU; sense: DNA at AGT, 2'-fluoro at CU, [invAb] at 5' end, 3' end, backbone not given here; antisense: sugars from the 5' end rrrmmmmmfmfmmfmfffmmm, backbone not given here) | 41.5 ± 1.4 | 19 ± 33.3%
8 | 25432-DC: siNA duplex: sense B cuGAGGAAAAucAGGAcAu TTB (SEQ ID NO: 47), antisense AUGuccuGAuuuuccucAGUU (SEQ ID NO: 48) (sense CUGAGGAAAAUCAGGACAUTT; antisense AUGUCCUGAUUUUCCUCAGUU; sense: DNA at AGT, 2'-fluoro at CU, [invAb] at 5' end, 3' end, backbone not given here; antisense: sugars from the 5' end r3 f4 m2 f8 m4, backbone not given here) | 37.1 ± 3.8 | 47 ± 26.2%
9 | 25454-DC: siNA duplex: sense B AAuuuAuuuuGuGAAcAcu TTB (SEQ ID NO: 91), antisense AGUGuucAcAAAAuAAAuuUU (SEQ ID NO: 92) (sense AAUUUAUUUUGUGAACACUTT; antisense AGUGUUCACAAAAUAAAUUUU; sense: DNA at AGT, 2'-fluoro at CU, [invAb] at 5' end, 3' end, backbone not given here; antisense: sugars from the 5' end rrrmfffmfmmmmfmmmffmm, backbone not given here) | 30.7 ± 22.5 | 63 ± 16.9%
10 | 25431-DC: siNA duplex: sense B GcuucAGGAuGcAuuGcAA TTB (SEQ ID NO: 45), antisense UUGcAAuGcAuccuGAAGcUU (SEQ ID NO: 46) (sense GCUUCAGGAUGCAUUGCAATT; antisense UUGCAAUGCAUCCUGAAGCUU; sense: DNA at AGT, 2'-fluoro at CU, [invAb] at 5' end, 3' end, backbone not given here; antisense: sugars from the 5' end rrrfmmfmfmffffmmmmfmm, backbone not given here) | −10.8 ± 14.2 | −11 ± 39.5%
11 | 25459-DC: siNA duplex: sense B uGcccAGGcuAcccuGAAA TTB (SEQ ID NO: 101), antisense UUUcAGGGuAGccuGGGcAUU (SEQ ID NO: 102) (sense UGCCCAGGCUACCCUGAAATT; antisense UUUCAGGGUAGCCUGGGCAUU; sense: DNA at AGT, 2'-fluoro at CU, [invAb] at 5' end, 3' end, backbone not given here; antisense: sugars from the 5' end rrrfmmmmfmmfffmmmfmmm, backbone not given here) | 15.7 ± 1.6 | −6 ± 27^ %
